Tests used:
estrogen receptor alpha = molecular target: T1, estrogen receptor alpha (Homo sapiens, UniProt P03372); experiment: ERα downregulation assay in T47D breast cancer cells (ERα ELISA); type: cell-based; settings: downregulation of ERα relative to fulvestrant (100%), 1E-5 M, 24 hours, negative = upregulation
T1 construct: endogenous in cells; host or cells: T47D human breast cancer cells (ATCC)
T1 sequence (P03372 1-595): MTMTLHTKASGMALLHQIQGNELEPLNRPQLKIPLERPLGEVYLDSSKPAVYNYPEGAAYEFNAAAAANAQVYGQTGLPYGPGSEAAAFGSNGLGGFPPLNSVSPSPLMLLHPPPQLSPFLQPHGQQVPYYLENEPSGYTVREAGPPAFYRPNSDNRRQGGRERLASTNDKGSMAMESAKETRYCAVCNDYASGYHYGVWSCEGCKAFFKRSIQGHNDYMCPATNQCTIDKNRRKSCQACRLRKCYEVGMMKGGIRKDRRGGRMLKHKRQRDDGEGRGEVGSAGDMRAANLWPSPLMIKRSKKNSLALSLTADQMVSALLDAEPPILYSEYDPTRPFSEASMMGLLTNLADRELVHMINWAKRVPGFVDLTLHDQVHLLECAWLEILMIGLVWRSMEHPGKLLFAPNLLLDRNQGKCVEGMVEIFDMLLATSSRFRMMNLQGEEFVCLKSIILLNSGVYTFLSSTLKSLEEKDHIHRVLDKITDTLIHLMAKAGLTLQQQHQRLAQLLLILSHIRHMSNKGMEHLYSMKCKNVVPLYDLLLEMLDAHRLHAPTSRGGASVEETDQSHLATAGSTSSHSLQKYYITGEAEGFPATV
From the text: More specifically, this in vitro bioassay is used to determine the efficacy (fraction of maximal response) of the compound by comparing the data for this compound with those of the reference compound ICI 182,780 (fulvestrant) in the same test (downregulation of fulvestrant is 100% by definition).
A more detailed description of the method used is as follows.
Cell culture. The human epithelial breast cancer cell line T47D (origin: ATCC) was routinely maintained in a 1:1 mixture of Ham's F12 medium and Dulbecco's Modified Eagle Medium (Gibco) enriched with 5% fetal calf serum (Hyclone), 10 mM HEPES pH 7.5 and 100 μg/ml penicillin-streptomycin solution. Cells were grown in 80 cm2 culture flasks (Nunc, Roskilde, Denmark) and kept in an atmosphere of 5% CO2-95% air at 37 degrees Celsius. Cells were subcultured when they reached about 80-90% confluence, resulting in one passage a week. Subculturing includes detaching the cells using Cell Dissociation Buffer [Sigma] and subsequent inoculation at 1:5 or 1:10 in a new Roux flask (175 cc) and\or plating out in Nunclon™ Surface 96 wells microplates. The culture medium needs to be refreshed on day three or four of the incubation, if applicable.
Determination of ERα protein levels: T47D cells in the microplates are incubated with 1E-5 M test compound for 24 hours. The supernatant in all wells is carefully aspirated. Cells are lysed on the microplate and cell lysates are probed for ERα content using an ERα ELISA assay kit (Active Motif).

[1] = molecular target: T2, human estrogen receptor α (hERα) (Homo sapiens, UniProt P03372); experiment: antagonistic activity in CHO cells co-transfected with hERα, rat oxytocin promoter and luciferase reporter gene; type: cell-based; settings: antagonism of 17β-estradiol-induced transactivation, CHO-hERα-RO-LUC; read-out: ERα pIC50 (converted)
T2 sequence (P03372 1-595): T1 sequence (P03372 1-595)
Procedure: The antagonistic activity of compounds on the estrogen receptors was determined in an in vitro bioassay with recombinant Chinese Hamster Ovary (CHO) cells stably co-transfected with the human estrogen receptor α (hERα), the rat oxytocin promoter (RO) and the luciferase reporter gene (LUC). […] The antagonistic efficacy, i.e. the amount of maximal inhibition of the 17β-estradiol activated receptor by a compound, is expressed as fraction relative to the maximal inhibition as induced by the standard anti-estrogen ICI 164,384 (efficacy test compound=(maximal inhibition test compound/maximal inhibition ICI 164,384)). A more detailed description of the methodology can be found in De Gooyer et al., Steroids, 68 (2003) 21-30.

Row | DR (%) (estrogen receptor alpha) | IC50 [1] [nM] | Structure (SMILES)
1 | 64 | 7.94 | CCCN1CC(Oc2ccc(C(OC)c3c(-c4ccccc4Cl)noc3-c3ccc(O)cc3)cc2)C1 (stereo not drawn) [compound 7aw, 4-(3-(2-chlorophenyl)-4-(methoxy(4-(1-propylazetidin-3-yloxy)phenyl)methyl)-isoxazol-5-yl)phenol]
2 | 33 | 0.794 | C=C(c1ccc(OC2CN(CCC)C2)cc1)c1c(-c2ccccc2Cl)noc1-c1ccc(O)cc1 [compound 7ax, 4-(3-(2-chlorophenyl)-4-(1-(4-(1-propylazetidin-3-yloxy)phenyl)vinyl)isoxazol-5-yl)phenol]
3 | 68 | 0.631 | C=CCN1CC(Oc2ccc(-c3c(-c4ccc(O)cc4)sc4cc(O)ccc34)cc2)C1.O=C(O)C(F)(F)F [compound 7b, 3-(4-(1-allylazetidin-3-yloxy)phenyl)-2-(4-hydroxyphenyl)benzo[b]thiophen-6-ol 2,2,2-trifluoroacetate]
4 | 51 | 15.8 | CCCN1CC(Oc2ccc(C(=O)c3c(-c4cccc(O)c4)noc3-c3ccccc3F)cc2)C1.Cl [compound 7ba, (5-(2-fluorophenyl)-3-(3-hydroxyphenyl)isoxazol-4-yl)(4-(1-propylazetidin-3-yloxy)phenyl)methanone hydrochloride]
5 | 33 | 63.1 | CCCN1CC(Oc2ccc(Cc3c(-c4ccccc4)c(=O)oc4cc(OC)ccc34)cc2)C1 [compound 7bf, 7-methoxy-3-phenyl-4-(4-(1-propylazetidin-3-yloxy)benzyl)-2H-chromen-2-one]
6 | 48 | 2 | CN1CC(Oc2ccc(C(=O)c3c(-c4ccc(O)cc4)sc4cc(O)ccc34)cc2)C1.Cl [compound 7d, (6-hydroxy-2-(4-hydroxyphenyl)benzo[b]thiophen-3-yl)(4-(1-methylazetidin-3-yloxy)phenyl)methanone hydrochloride]
7 | 96 | 2 | CCCN1CC(Oc2ccc(C(=O)c3c(-c4ccccc4)sc4cc(O)ccc34)cc2)C1.Cl [compound 7e, (6-hydroxy-2-phenylbenzo[b]thiophen-3-yl)(4-(1-propylazetidin-3-yloxy)-phenyl)methanone hydrochloride]
8 | 88 | 2.51 | CCCN1CC(Oc2ccc(C(=O)c3c(-c4cccs4)sc4cc(O)ccc34)cc2)C1.Cl [compound 7f, (6-hydroxy-2-(thiophen-2-yl)benzo[b]thiophen-3-yl)(4-(1-propylazetidin-3-yl-oxy)phenyl)methanone hydrochloride]
9 | 46 | 3.98 | CCN1CC(Oc2ccc(C(=O)c3c(-c4ccc(O)cc4)sc4cc(O)ccc34)cc2)C1.O=C(O)C(F)(F)F [compound 7g, (4-(1-ethylazetidin-3-yloxy)phenyl)(6-hydroxy-2-(4-hydroxyphenyl)benzo[b]-thiophen-3-yl)methanone 2,2,2-trifluoroacetate]
10 | 66 | 2.51 | O=C(O)C(F)(F)F.O=C(c1ccc(OC2CN(C3CC3)C2)cc1)c1c(-c2ccc(O)cc2)sc2cc(O)ccc12 [compound 7i, (4-(1-cyclopropylazetidin-3-yloxy)phenyl)(6-hydroxy-2-(4-hydroxyphenyl)-benzo[b]thiophen-3-yl)methanone 2,2,2-trifluoroacetate]
11 | 98 | 2.51 | O=C(O)C(F)(F)F.O=C(c1ccc(OC2CN(CCCF)C2)cc1)c1c(-c2ccc(O)cc2)sc2cc(O)ccc12 [compound 7j, (4-(1-(3-fluoropropyl)azetidin-3-yloxy)phenyl)(6-hydroxy-2-(4-hydroxyphenyl)benzo[b]thiophen-3-yl)methanone 2,2,2-trifluoroacetate]
12 | 57 | 2 | COCCCN1CC(Oc2ccc(C(=O)c3c(-c4ccc(O)cc4)sc4cc(O)ccc34)cc2)C1.O=C(O)C(F)(F)F [compound 7k, (6-hydroxy-2-(4-hydroxyphenyl)benzo[b]thiophen-3-yl)(4-(1-(3-methoxypropyl)azetidin-3-yloxy)phenyl)methanone 2,2,2-trifluoroacetate]
